Data taken from ChEMBL document CHEMBL3639344, “Fused heterocyclic compounds as orexin receptor modulators” (2014).

How the values were obtained:
Orexin receptor type 2 = target: T1, Orexin receptor type 2 (Homo sapiens, UniProt O43614); test: (§1) Radioligand Binding: HEK293 stably expressing human orexin-2 receptor (Genebank accession number NM 001526) were grown to confluency in DMEM/F12 (Gibco, Cat #11039), in DMEM, 10% FBS, 1× Pen/Strep, 1× NaPyruvate, 1×HEPES, 600 ug/ml G418 media on 150 cm2 tissue culture plates, washed with 5 mM EDTA in PBS (HyClone Dulbecco's Phosphate Buffered Saline 1× with Calcium and Magnesium, Cat #SH30264.01, hereafter referred to simply as PBS) and scraped into 50 ml tubes. After centrifugation (2K xG, 10 min at 4° C.), the supernatant was aspirated and the pellets frozen and stored at −80° C. Cells were resuspended in PBS in the presence of 1 tablet of protease inhibitor cocktail (Roche, Cat. #11836145001) per 50 mL.
T1 sequence (O43614 whole entry): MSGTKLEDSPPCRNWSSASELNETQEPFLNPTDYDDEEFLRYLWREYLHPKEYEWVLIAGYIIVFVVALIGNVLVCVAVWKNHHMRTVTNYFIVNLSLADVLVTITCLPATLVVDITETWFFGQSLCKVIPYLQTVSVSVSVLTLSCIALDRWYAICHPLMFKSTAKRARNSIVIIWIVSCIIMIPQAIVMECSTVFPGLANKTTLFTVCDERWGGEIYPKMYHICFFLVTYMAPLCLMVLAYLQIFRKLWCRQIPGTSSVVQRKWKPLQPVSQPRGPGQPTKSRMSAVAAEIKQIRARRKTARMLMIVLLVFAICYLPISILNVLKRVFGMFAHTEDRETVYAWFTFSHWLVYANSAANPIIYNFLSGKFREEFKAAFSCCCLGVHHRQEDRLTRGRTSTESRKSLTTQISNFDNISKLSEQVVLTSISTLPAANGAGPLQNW

[1] = target: T2, Orexin/Hypocretin receptor type 1 (Homo sapiens, UniProt O43613); test: as §1, with “Chinese ovary cells (CHO)” for “HEK293”, “orexin 1” for “orexin-2”, “#11039),” for “#11039), in DMEM,”, “Pen/Strep,” for “Pen/Strep, 1× NaPyruvate, 1×HEPES,”, “μg/mL” for “ug/ml”, “Phoshpate” for “Phosphate”; format: cell-based
T2 sequence (O43613 whole entry): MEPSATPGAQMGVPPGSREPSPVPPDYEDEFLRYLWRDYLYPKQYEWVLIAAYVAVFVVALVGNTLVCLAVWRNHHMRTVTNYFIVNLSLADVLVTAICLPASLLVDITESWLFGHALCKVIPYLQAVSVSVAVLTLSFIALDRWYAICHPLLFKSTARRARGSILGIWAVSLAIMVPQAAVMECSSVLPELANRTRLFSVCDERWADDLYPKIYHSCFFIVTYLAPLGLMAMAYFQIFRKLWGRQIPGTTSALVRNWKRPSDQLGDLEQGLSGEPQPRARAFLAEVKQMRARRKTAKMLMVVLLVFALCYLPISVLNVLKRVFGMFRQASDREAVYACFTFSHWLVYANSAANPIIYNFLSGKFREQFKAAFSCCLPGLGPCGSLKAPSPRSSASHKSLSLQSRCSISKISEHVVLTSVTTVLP

Ki (Orexin receptor type 2): 59 nM
Ki [1]: 1590 nM
SMILES: Cc1cc(C)nc(N2C[C@@H]3CCN(C(=O)c4ccccc4-c4nc(C)no4)C[C@@H]32)n1
